Drawing on US9732075B2, “Benzimidazole-proline derivatives” (IDORSIA PHARMACEUTICALS LTD, priority 2012, dated 2017), this text covers IC50 for 51 molecules.

One assay has as its target human orexin-2 receptor (Homo sapiens (Human), UniProt O43614). Nature of the assay: In vitro assay: intracellular calcium measurements (FLIPR), antagonistic activity. It is filed as cell-based. As to conditions: CHO cells expressing human orexin-2 receptor, orexin-A agonist, geometric mean, read-out: IC50 Ox2. The essentials:
(§1)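 IC50s are geometric means, possibly reference-normalized, from FLIPR calcium peaks in CHO cells bearing human orexin-1 or orexin-2 receptor. Fluo-4 AM/probenecid-loaded cells received antagonist for 120 min before challenge with orexin-A (final 3 nM, ~EC70), with responses compared against vehicle controls.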
On the technique in general: A change in cytosolic calcium serves as a functional read-out for many receptors and channels.

In a further assay the target is human orexin-1 receptor (Homo sapiens (Human), UniProt O43613). The description is as above. It is filed as cell-based. As to conditions: CHO cells expressing human orexin-1 receptor, orexin-A agonist, geometric mean, read-out: IC50 Ox1. The essentials: as §1
Sequence of human orexin-1 receptor (O43613 whole entry): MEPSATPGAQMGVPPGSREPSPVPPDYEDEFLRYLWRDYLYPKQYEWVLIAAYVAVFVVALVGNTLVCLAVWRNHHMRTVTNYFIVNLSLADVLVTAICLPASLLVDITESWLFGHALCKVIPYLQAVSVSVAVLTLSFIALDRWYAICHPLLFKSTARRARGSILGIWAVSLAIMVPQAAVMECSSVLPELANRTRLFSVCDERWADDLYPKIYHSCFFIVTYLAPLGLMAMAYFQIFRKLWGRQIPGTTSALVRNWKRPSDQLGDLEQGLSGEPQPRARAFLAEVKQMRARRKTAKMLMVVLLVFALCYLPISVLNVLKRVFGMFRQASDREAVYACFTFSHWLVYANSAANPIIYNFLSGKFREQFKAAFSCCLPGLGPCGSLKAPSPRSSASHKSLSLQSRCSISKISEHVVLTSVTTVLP

Sequence of human orexin-2 receptor (O43614 whole entry): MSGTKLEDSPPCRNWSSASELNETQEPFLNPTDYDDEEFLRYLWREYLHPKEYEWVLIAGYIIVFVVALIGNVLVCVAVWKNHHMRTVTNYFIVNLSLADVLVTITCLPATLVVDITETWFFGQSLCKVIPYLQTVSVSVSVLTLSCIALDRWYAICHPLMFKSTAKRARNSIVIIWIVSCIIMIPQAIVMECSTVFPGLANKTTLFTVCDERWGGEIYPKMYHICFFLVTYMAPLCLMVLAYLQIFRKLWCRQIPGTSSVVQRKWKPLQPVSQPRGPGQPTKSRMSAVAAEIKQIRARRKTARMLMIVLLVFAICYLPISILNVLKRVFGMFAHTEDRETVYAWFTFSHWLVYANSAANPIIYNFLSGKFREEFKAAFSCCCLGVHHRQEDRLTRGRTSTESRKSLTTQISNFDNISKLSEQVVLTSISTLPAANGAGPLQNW

Broadly, the IC50 is the concentration needed to halve the response being measured. On to `C=C1CC(c2nc3c(C)c(C)ccc3[nH]2)N(C(=O)c2cc(C)sc2-c2ccc(C)c(C)c2)C1` (stereo not drawn) [Ex. 6.77], for which the values for the IC50 on human orexin-2 receptor and at human orexin-1 receptor were 9 nM and 3 nM, respectively.
For the molecule `C=C1CC(c2nc3c(Br)cccc3[nH]2)N(C(=O)c2cc(C)sc2-c2ccc(C)c(C)c2)C1` (stereo not drawn) [Ex. 6.78], the IC50 came out at 12 nM at human orexin-2 receptor and 5 nM at human orexin-1 receptor.
In the case of `C=C1CC(c2nc3c(C)cccc3[nH]2)N(C(=O)c2cc(C)sc2-c2ccc(C)c(C)c2)C1` (stereo not drawn) [Ex. 6.79], the results for the IC50 on human orexin-2 receptor and on human orexin-1 receptor were 4 nM and 2 nM, respectively.
As to `C=C1CC(c2nc3cc(C(C)(C)C)ccc3[nH]2)N(C(=O)c2cc(C)sc2-c2ccc(C)c(C)c2)C1` (stereo not drawn) [Ex. 6.81], the IC50 on human orexin-2 receptor came out at 23 nM; at human orexin-1 receptor, 19 nM.
In the same order, the values of `C=C1CC(c2nc3cc(Cl)c(C(F)(F)F)cc3[nH]2)N(C(=O)c2cc(C)sc2-c2ccc(C)c(C)c2)C1` (stereo not drawn) [Ex. 6.82] are 208 nM and 36 nM.
Regarding `C=C1CC(c2nc3cccc(Cl)c3[nH]2)N(C(=O)c2cc(C)sc2-c2ccc(C)c(C)c2)C1` (stereo not drawn) [Ex. 6.84], the IC50 at human orexin-2 receptor is 14 nM; on human orexin-1 receptor it was 8 nM.
Taken in the same sequence, the figures for `C=C1CC(c2nc3cc4ccccc4cc3[nH]2)N(C(=O)c2cc(C)sc2-c2ccc(C)c(C)c2)C1` (stereo not drawn) [Ex. 6.85] were 42 nM and 108 nM.
As to `C=C1CC(c2nc3cc(SC)ccc3[nH]2)N(C(=O)c2nc(C3CC3)sc2-c2cccc(C)c2)C1` (stereo not drawn) [Ex. 6.88], the IC50 on human orexin-2 receptor worked out at 15 nM; on human orexin-1 receptor, 20 nM.
As to `C=C1CC(c2nc3c(C)c(Cl)ccc3[nH]2)N(C(=O)c2nc(C3CC3)sc2-c2cccc(C)c2)C1` (stereo not drawn) [Ex. 6.89], the half-maximal inhibitory concentration (IC50) on human orexin-2 receptor and on human orexin-1 receptor was 2 nM each time.
As for `C=C1CC(c2nc3cc(C)c(C)cc3[nH]2)N(C(=O)c2nc(C3CC3)sc2-c2cccc(C)c2)C1` (stereo not drawn) [Ex. 6.90], the IC50 at human orexin-2 receptor turned out to be 1 nM; on human orexin-1 receptor, 6 nM.
Taken in the same sequence, the figures for `C=C1CC(c2nc3c(C)cc(C)cc3[nH]2)N(C(=O)c2nc(C3CC3)sc2-c2cccc(C)c2)C1` (stereo not drawn) [Ex. 6.91] were 1 nM and 2 nM.
For the molecule `C=C1CC(c2nc3c(Br)cccc3[nH]2)N(C(=O)c2nc(C3CC3)sc2-c2cccc(C)c2)C1` (stereo not drawn) [Ex. 6.93], the IC50 amounted to 3 nM at human orexin-2 receptor and 0.9 nM on human orexin-1 receptor.
In the case of `C=C1CC(c2nc3c(C)cccc3[nH]2)N(C(=O)c2nc(C3CC3)sc2-c2cccc(C)c2)C1` (stereo not drawn) [Ex. 6.94], the values for the IC50 on human orexin-2 receptor and on human orexin-1 receptor were 1 nM and 2 nM, respectively.
On to `C=C1CC(c2nc3cc(C(C)(C)C)ccc3[nH]2)N(C(=O)c2nc(C3CC3)sc2-c2cccc(C)c2)C1` (stereo not drawn) [Ex. 6.96], for which the IC50 at human orexin-2 receptor stood at 68 nM; on human orexin-1 receptor, 234 nM.
Consider `C=C1CC(c2nc3c(OC)ccc(OC)c3[nH]2)N(C(=O)c2nc(C3CC3)sc2-c2cccc(C)c2)C1` (stereo not drawn) [Ex. 6.98], for which the IC50 at human orexin-2 receptor came out at 3 nM; at human orexin-1 receptor it was 4 nM.
With `C=C1C[C@@H](c2nc3cccc(C)c3[nH]2)N(C(=O)c2nc(C)sc2-c2ccc(Br)cc2)C1` [Ex. 6.100], the IC50 at human orexin-2 receptor amounted to 4 nM; on human orexin-1 receptor, 55 nM.
On to `C=C1C[C@@H](c2nc3cccc(C)c3[nH]2)N(C(=O)c2nc(C)sc2-c2cccc(C)c2)C1` [Ex. 6.101], for which the IC50 is 0.9 nM at human orexin-2 receptor and 10 nM at human orexin-1 receptor.
As to `C=C1C[C@@H](c2nc3cccc(C)c3[nH]2)N(C(=O)c2cc(Cl)ccc2-n2nccn2)C1` [Ex. 6.102], the figures for the IC50 on human orexin-2 receptor and on human orexin-1 receptor were 32 nM and 364 nM, respectively.
In the same order, the values of `C=C1C[C@@H](c2nc3cccc(C)c3[nH]2)N(C(=O)c2nc(C)sc2-c2ccc(OC)nc2)C1` [Ex. 6.103] are 6 nM and 184 nM.
As for `C=C1C[C@@H](c2nc3cccc(C)c3[nH]2)N(C(=O)c2nc(C)sc2-c2cccc(Br)c2)C1` [Ex. 6.104], the IC50 at human orexin-2 receptor is 0.8 nM; at human orexin-1 receptor, 13 nM.
Take `C=C1C[C@@H](c2nc3cccc(C)c3[nH]2)N(C(=O)c2nc(C)ccc2-n2cccn2)C1` [Ex. 6.105]: the IC50 came out at 77 nM on human orexin-2 receptor and 1060 nM on human orexin-1 receptor.
For `C=C1C[C@@H](c2nc3cccc(C)c3[nH]2)N(C(=O)c2nc(C)sc2-c2ccc(F)cc2)C1` [Ex. 6.106], the IC50 came out at 5 nM on human orexin-2 receptor and 99 nM at human orexin-1 receptor.
In the same order, the values of `C=C1C[C@@H](c2nc3cccc(C)c3[nH]2)N(C(=O)c2nc(C)sc2-c2cc(C)cc(C)c2)C1` [Ex. 6.107] are 16 nM and 74 nM.
Take `C=C1C[C@@H](c2nc3cccc(C)c3[nH]2)N(C(=O)c2cc(C)c(C)cc2-n2nccn2)C1` [Ex. 6.108]: the IC50 at human orexin-2 receptor is 7 nM; on human orexin-1 receptor it was 414 nM.
On to `C=C1C[C@@H](c2nc3cccc(C)c3[nH]2)N(C(=O)c2nc(C)sc2-c2ccc(Cl)cc2)C1` [Ex. 6.109], for which the IC50 on human orexin-2 receptor worked out at 7 nM; at human orexin-1 receptor, 112 nM.
As to `C=C1C[C@@H](c2nc3cccc(C)c3[nH]2)N(C(=O)c2nc(C)sc2-c2ccc(F)c(Br)c2)C1` [Ex. 6.110], the IC50 turned out to be 1 nM at human orexin-2 receptor and 15 nM on human orexin-1 receptor.
As to `C=C1C[C@@H](c2nc3cccc(C)c3[nH]2)N(C(=O)c2cc(OC)ccc2-n2nccn2)C1` [Ex. 6.111], the IC50 is 14 nM on human orexin-2 receptor and 272 nM at human orexin-1 receptor.
`C=C1C[C@@H](c2nc3cccc(C)c3[nH]2)N(C(=O)c2nc(C)sc2-c2cccc(C(F)(F)F)c2)C1` [Ex. 6.112]: the IC50 on human orexin-2 receptor was found to be 0.7 nM; on human orexin-1 receptor, 15 nM.
As to `C=C1C[C@@H](c2nc3cccc(C)c3[nH]2)N(C(=O)c2nc(C)sc2-c2ccc(Cl)c(Cl)c2)C1` [Ex. 6.113], the figures for the IC50 on human orexin-2 receptor and on human orexin-1 receptor were 1 nM and 5 nM, respectively.
Taken in the same sequence, the figures for `C=C1C[C@@H](c2nc3cccc(C)c3[nH]2)N(C(=O)c2nc(C)sc2-c2cccc(OC)c2)C1` [Ex. 6.114] were 0.7 nM and 16 nM.
On to `C=C1C[C@@H](c2nc3cccc(C)c3[nH]2)N(C(=O)c2nc(C)ccc2-n2nccn2)C1` [Ex. 6.115], for which the IC50 on human orexin-2 receptor was determined as 9 nM; at human orexin-1 receptor, 333 nM.
Take `C=C1C[C@@H](c2nc3ccc(Cl)c(C)c3[nH]2)N(C(=O)c2nc(C)sc2-c2ccc(Br)cc2)C1` [Ex. 6.116]: the IC50 at human orexin-2 receptor turned out to be 3 nM; at human orexin-1 receptor it was 14 nM.
Take `C=C1C[C@@H](c2nc3ccc(Cl)c(C)c3[nH]2)N(C(=O)c2nc(C)sc2-c2ccc(OC)nc2)C1` [Ex. 6.117]: the IC50 at human orexin-2 receptor worked out at 3 nM; on human orexin-1 receptor it was 19 nM.
As for `C=C1C[C@@H](c2nc3ccc(Cl)c(C)c3[nH]2)N(C(=O)c2nc(C)sc2-c2ccc(F)cc2)C1` [Ex. 6.118], the IC50 on human orexin-2 receptor was determined as 4 nM; at human orexin-1 receptor, 21 nM.
On to `C=C1C[C@@H](c2nc3ccc(Cl)c(C)c3[nH]2)N(C(=O)c2nc(C)sc2-c2ccc(Cl)cc2)C1` [Ex. 6.119], for which the IC50 at human orexin-2 receptor is 3 nM; at human orexin-1 receptor it was 14 nM.
In the case of `C=C1C[C@@H](c2nc3ccc(Cl)c(C)c3[nH]2)N(C(=O)c2nc(C)sc2-c2cccc(C(F)(F)F)c2)C1` [Ex. 6.120], the IC50 was found to be 0.6 nM on human orexin-2 receptor and 8 nM at human orexin-1 receptor.
Turning to `C=C1C[C@@H](c2nc3ccc(Cl)c(C)c3[nH]2)N(C(=O)c2nc(C)sc2-c2cccc(OC)c2)C1` [Ex. 6.121], the IC50 came to 0.5 nM on human orexin-2 receptor and 1 nM at human orexin-1 receptor.
In the case of `C=C1C[C@@H](c2nc3ccc(Cl)c(C)c3[nH]2)N(C(=O)c2nc(C)sc2-c2cccc(C)c2)C1` [Ex. 6.122], the results for the IC50 on human orexin-2 receptor and on human orexin-1 receptor were 0.6 nM and 0.9 nM, respectively.
For the molecule `C=C1C[C@@H](c2nc3ccc(Cl)c(C)c3[nH]2)N(C(=O)c2nc(C)sc2-c2cccc(Br)c2)C1` [Ex. 6.123], the results for the IC50 on human orexin-2 receptor and on human orexin-1 receptor were 0.7 nM and 2 nM, respectively.
Consider `C=C1C[C@@H](c2nc3ccc(Cl)c(C)c3[nH]2)N(C(=O)c2nc(C)sc2-c2cc(C)cc(C)c2)C1` [Ex. 6.124], for which the concentration for half-maximal inhibition (IC50) was 4 nM at human orexin-2 receptor and 15 nM on human orexin-1 receptor.
In the same order, the values of `C=C1C[C@@H](c2nc3ccc(Cl)c(C)c3[nH]2)N(C(=O)c2nc(C)sc2-c2ccc(F)c(Br)c2)C1` [Ex. 6.125] are 0.8 nM and 2 nM.
For `C=C1C[C@@H](c2nc3ccc(Cl)c(C)c3[nH]2)N(C(=O)c2nc(C)sc2-c2ccc(Cl)c(Cl)c2)C1` [Ex. 6.126], the IC50 was determined as 0.8 nM at human orexin-2 receptor and 3 nM on human orexin-1 receptor.
For `C=C1C[C@@H](c2nc3ccc(Cl)c(C)c3[nH]2)N(C(=O)c2nc(C)ccc2-n2nccn2)C1` [Ex. 6.127], the values for the IC50 at human orexin-2 receptor and at human orexin-1 receptor were 4 nM and 17 nM, respectively.
Regarding `C=C1C[C@@H](c2nc3ccc(Cl)c(C)c3[nH]2)N(C(=O)c2cc(Cl)ccc2-n2nccn2)C1` [Ex. 6.128], the IC50 was found to be 1 nM on human orexin-2 receptor and 20 nM at human orexin-1 receptor.
Consider `C=C1C[C@@H](c2nc3ccc(Cl)c(C)c3[nH]2)N(C(=O)c2cc(C(F)(F)F)ccc2-n2nccn2)C1` [Ex. 6.129], for which the 50% inhibitory concentration (IC50) at human orexin-2 receptor stood at 39 nM; at human orexin-1 receptor it was 215 nM.
Taken in the same sequence, the figures for `C=C1C[C@@H](c2nc3ccc(Cl)c(C)c3[nH]2)N(C(=O)c2cc(C)c(C)cc2-n2nccn2)C1` [Ex. 6.130] were 0.6 nM and 11 nM.
In the case of `C=C1C[C@@H](c2nc3ccc(Cl)c(C)c3[nH]2)N(C(=O)c2cc(OC)ccc2-n2nccn2)C1` [Ex. 6.131], the IC50 at human orexin-2 receptor stood at 0.5 nM; at human orexin-1 receptor it was 9 nM.
On to `C=C1C[C@@H](c2nc3ccc(Cl)c(C)c3[nH]2)N(C(=O)c2c(-n3nccn3)ccc(C)c2F)C1` [Ex. 6.132], for which the results for the IC50 at human orexin-2 receptor and at human orexin-1 receptor were 4 nM and 13 nM, respectively.
`C=C1C[C@@H](c2nc3ccc(Cl)c(C)c3[nH]2)N(C(=O)c2c(-n3nccn3)ccc(OC)c2F)C1` [Ex. 6.133]: the 50% inhibitory concentration (IC50) at human orexin-2 receptor was found to be 2 nM; on human orexin-1 receptor, 3 nM.
As for `C=C1C[C@@H](c2nc3ccc(Cl)c(C)c3[nH]2)N(C(=O)c2cc(C)ccc2-n2cccn2)C1` [Ex. 6.134], the IC50 at human orexin-2 receptor worked out at 10 nM; on human orexin-1 receptor, 75 nM.
In the same order, the values of `C=C1C[C@@H](c2nc3ccc(Cl)c(C)c3[nH]2)N(C(=O)c2nc(C)ccc2-n2cccn2)C1` [Ex. 6.135] are 5 nM and 83 nM.
